From ChEMBL document CHEMBL1129318, “Structure-activity relationships of boronic acid inhibitors of dipeptidyl peptidase IV. 1. Variation of the P2 position of Xaa-boroPro dipeptides” (J Med Chem, 1996)

How the values were obtained:
Dipeptidyl peptidase 4 = Dipeptidyl peptidase 4 (Homo sapiens, UniProt P27487); assay: In vitro for inhibition of Dipeptidylpeptidase IV.
[1] = target: T1, Prolyl endopeptidase (Homo sapiens) (UniProt P48147); assay: (§1) Compound was tested in vitro for inhibition of Prolyl endopeptidase; settings: concentration not given here
T1 sequence (whole entry): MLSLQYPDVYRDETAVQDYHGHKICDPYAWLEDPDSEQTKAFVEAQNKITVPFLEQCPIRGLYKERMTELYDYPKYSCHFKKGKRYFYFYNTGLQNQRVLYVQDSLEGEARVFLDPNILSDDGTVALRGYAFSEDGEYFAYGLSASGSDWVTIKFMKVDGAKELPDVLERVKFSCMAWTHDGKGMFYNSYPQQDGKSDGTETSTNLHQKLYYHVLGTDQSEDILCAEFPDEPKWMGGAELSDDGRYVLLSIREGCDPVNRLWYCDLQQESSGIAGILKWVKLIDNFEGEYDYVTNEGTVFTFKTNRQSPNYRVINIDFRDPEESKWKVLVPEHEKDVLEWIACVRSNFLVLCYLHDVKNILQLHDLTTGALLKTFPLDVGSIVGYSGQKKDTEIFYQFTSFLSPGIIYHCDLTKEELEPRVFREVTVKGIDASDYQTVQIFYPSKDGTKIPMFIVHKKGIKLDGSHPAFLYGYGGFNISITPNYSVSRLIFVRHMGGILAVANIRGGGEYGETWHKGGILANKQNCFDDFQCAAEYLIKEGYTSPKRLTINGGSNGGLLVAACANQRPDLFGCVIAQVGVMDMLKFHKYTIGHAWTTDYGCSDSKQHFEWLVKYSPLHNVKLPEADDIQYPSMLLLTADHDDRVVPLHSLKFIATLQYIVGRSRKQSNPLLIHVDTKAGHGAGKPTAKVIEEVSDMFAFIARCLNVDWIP

Dipeptidyl peptidase 2 = Dipeptidyl peptidase 2 (Homo sapiens, UniProt Q9UHL4); assay: Compound was tested in vitro for inhibition of Dipeptidylpeptidase II
Prolyl endopeptidase = target: T2, Prolyl endopeptidase (Homo sapiens, UniProt P48147); assay: as §1
T2 sequence (P48147 whole entry): T1 sequence (whole entry)

Dipeptidyl peptidase 4, sequence (P27487 whole entry): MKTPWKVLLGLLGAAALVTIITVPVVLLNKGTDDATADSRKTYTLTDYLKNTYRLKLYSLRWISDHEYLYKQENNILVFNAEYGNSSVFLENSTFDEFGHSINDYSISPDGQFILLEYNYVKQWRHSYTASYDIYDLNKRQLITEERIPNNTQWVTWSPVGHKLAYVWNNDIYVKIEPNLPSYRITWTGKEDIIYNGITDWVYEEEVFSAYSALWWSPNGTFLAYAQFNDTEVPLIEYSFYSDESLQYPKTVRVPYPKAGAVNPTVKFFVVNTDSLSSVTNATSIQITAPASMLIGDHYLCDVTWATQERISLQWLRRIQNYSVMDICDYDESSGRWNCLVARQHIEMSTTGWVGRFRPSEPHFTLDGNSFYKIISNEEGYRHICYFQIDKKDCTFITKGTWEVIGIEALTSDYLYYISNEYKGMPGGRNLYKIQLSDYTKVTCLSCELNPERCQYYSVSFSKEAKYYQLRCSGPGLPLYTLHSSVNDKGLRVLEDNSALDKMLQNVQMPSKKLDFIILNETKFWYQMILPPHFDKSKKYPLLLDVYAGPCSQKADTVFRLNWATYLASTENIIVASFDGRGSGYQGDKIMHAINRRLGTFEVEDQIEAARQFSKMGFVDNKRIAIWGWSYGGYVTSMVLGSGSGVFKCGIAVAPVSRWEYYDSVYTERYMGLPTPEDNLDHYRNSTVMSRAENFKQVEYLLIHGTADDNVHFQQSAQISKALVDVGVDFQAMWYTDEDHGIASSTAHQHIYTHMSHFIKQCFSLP

Structure (SMILES)	IC50 (Dipeptidyl peptidase 4)	other results
CC(C)(N)C(=O)N1CCC[C@H]1B(O)O	30000 nM	–
CC[C@H](C)[C@H](N)C(=O)N1CCC[C@H]1B(O)O	25 nM	–
O=C([C@@H]1CCN1)N1CCC[C@H]1B(O)O	250 nM	–
CC(C)C[C@H](N)C(=O)N1CCC[C@H]1B(O)O	44 nM	–
N[C@@H](Cc1ccccc1)C(=O)N1CCC[C@H]1B(O)O	70 nM	–
N[C@@H](Cc1ccc(O)cc1)C(=O)N1CCC[C@H]1B(O)O	32 nM	–
O=C([C@@H]1CCCN1)N1CCC[C@H]1B(O)O	20 nM	inhibition [1]: 63%; IC50 (Dipeptidyl peptidase 2): 770 nM
C[C@@H](O)[C@H](N)C(=O)N1CCC[C@H]1B(O)O	190 nM	IC50 (Prolyl endopeptidase): 6000 nM; IC50 (Dipeptidyl peptidase 2): 730 nM
N[C@H](C(=O)N1CCC[C@H]1B(O)O)c1ccccc1	63 nM	–
NCC(=O)N1CCC[C@H]1B(O)O	16000 nM	–
NCCCC[C@H](N)C(=O)N1CCC[C@H]1B(O)O	95 nM	–
C[C@H](N)C(=O)N1CCC[C@H]1B(O)O	–	IC50 (Dipeptidyl peptidase 2): 60 nM
N[C@@H](Cc1c[nH]cn1)C(=O)N1CCC[C@H]1B(O)O	17000 nM	–
